Measurements: US3980646A, “3-Methylpyrazole-5-carboxylates and medicaments containing these compounds” (Wulfing; Johann A., priority 1974, dated 1976)
“And” between values parts separate entries of the source, which are not always exact repeats. Identical values can stand only once.

What was measured:
[1] = system: free fatty acids and triglycerides in the serum; conditions: cited from earlier work
[2] = starving rats; David L. Smith et al; cited from earlier work
free fatty acids (FFS) [3] = assay: influence on the free fatty acids (FFS) after repeated application once daily for 4 days; assay type: in vivo, Rats male (Wistar); conditions: for free fatty acids (FFS): individual animals, 15 mg/kg
Method: Rats male, repeated application once daily for 4 days,
on the 4th day groups of 10 animals were killed at
intervals of 30 minutes, 1 hour and 2 hours after the
last application by ether narcosis and heart puncture.
10 controls were given esophagus probe, animals starved
for 17 hours before killing (cf. FIG. 4)
7-[3-(N-methyl-2-hydroxyethyl)-amino-2-
hydroxypropyl]-1,3-dimethylxanthine-3-
methylpyrazole-5-carboxylate 50 mg/kg peroral
3-methylpyrazole-5-carboxylic acid (3-MPC)
eq./kg 15 mg/kg peroral

free fatty acids (FFS) [4] = assay: influence on the free fatty acids (FFS) in starved (hyperlipacidaemic) animals, hunger lipolysis; assay type: in vivo, rats (Wistar); conditions: starved
Method: Investigations on a total of 260 Wistarrats were conducted with 7-[3-(N-methyl-N-2-hydroxyethyl)-amino-2-hydroxypropyl]-1,3-dimethylxanthine-3-methylpyrazole-5-carboxylate.
Examination of the influence of 7-[3-(N-methyl-N-2-hydroxy-
ethyl)-amino-2-hydroxypropyl]-1,3-dimethylxanthine-3-methyl-
pyrazole-5-carboxylate on the serum fatty acids (FFS) of
Male Rats, starve for 17 hours
Dose: 100 mg/kg body weight, oral by esophagus probe,
Blood removal: 1 hour after application
pyrazole-5-carboxylate on the free fatty acids (FFS) in
starved animals 1 hour after application
Comparative examinations of the influence of 7-[3-(N-methyl-
carboxylic acid on the free fatty acids (FFS) in starved
animals 1 hour after application
pyrazole-5-carboxylic acid on the free fatty acids (FFS)
in starved animals 6 hours after application

[5] = free acid, known per se; cited from earlier work
serum triglycerides (TG) = assay: influence on the serum triglycerides (TG) in normal animals; assay type: in vivo, Rats (Wistar); conditions: for TG: starve for 5 hours; for TG, mean (x): 1 hour
Method: Rats, starve for 5 hours
40 mg/kg body weight of active principle according to
the invention, oral by esophagus probe 1 hour before
12 mg/kg body weight of 3-methylpyrazole-5-carboxylic
acid, equim. dosage, 1 hour before removal of blood
Dose: 10 mg/kg body weight of active principle according to the
invention, oral by esophagus probe 1 hour before blood removal
Dose: 3 mg/kg body weight of 3-methylpyrazole-5-carboxylic acid,
equim. dosage, oral by esophagus probe 1 hour before

Structure (SMILES): Cc1cc(C(=O)O)[nH]n1 [3-methylpyrazole-5-carboxylic acid, reference compound]
- tachyphylaxia ([1]; observed by the authors, limits its suitability for therapeutic application): tachyphylaxia
- effect of pretreatment on the free fatty acid content of the plasma ([1]; pretreatment 4 to 5 days, Gerritzen et al): weakens the effect on the free fatty acid content of the plasma
- level of free fatty acids and triglycerides in the serum ([1]; small doses, starving normal rats): reduces the level of free fatty acids and triglycerides in the serum
- hypoglycaemic activity relative to tolbutamide [2]: two hundred times
- free fatty acids (FFS) (free fatty acids (FFS) [3]; 15 mg/kg p.o. 4 × appl., 30' after last application): 0.66 μval/ml plasma and 0.59 μval/ml plasma and 0.53 μval/ml plasma and 0.91 μval/ml plasma and 0.56 μval/ml plasma and 0.95 μval/ml plasma and 1.02 μval/ml plasma and 0.81 μval/ml plasma and 0.80 μval/ml plasma and 0.60 μval/ml plasma
- free fatty acids (FFS) (free fatty acids (FFS) [3]; 15 mg/kg p.o. 4 × appl., 1 h after last application): 0.75 μval/ml plasma and 0.73 μval/ml plasma and 0.95 μval/ml plasma and 0.96 μval/ml plasma and 1.03 μval/ml plasma and 1.16 μval/ml plasma and 1.08 μval/ml plasma and 0.84 μval/ml plasma and 1.24 μval/ml plasma and 0.92 μval/ml plasma
- free fatty acids (FFS) (free fatty acids (FFS) [3]; 15 mg/kg p.o. 4 × appl., 2 h after last application): 0.62 μval/ml plasma and 0.59 μval/ml plasma and 0.51 μval/ml plasma and 0.70 μval/ml plasma and 0.88 μval/ml plasma and 0.84 μval/ml plasma and 1.27 μval/ml plasma and 1.20 μval/ml plasma and 0.86 μval/ml plasma
- free fatty acids (FFS), mean (x9) (free fatty acids (FFS) [3]; mean of 9, 15 mg/kg p.o. 4 × appl., 2 h after last application, control 1.27, p<0.001): 0.83 μval/ml plasma
- free fatty acids (FFS), mean (x10) (free fatty acids (FFS) [3]; 15 mg/kg p.o. 4 × appl., 30' after last application, control 1.27, p<0.001): 0.74 μval/ml plasma
- free fatty acids (FFS), mean (x10) (free fatty acids (FFS) [3]; 15 mg/kg p.o. 4 × appl., 1 h after last application, control 1.27, p<0.001): 0.97 μval/ml plasma
- weakening of effect on free fatty acid content by pretreatment (free fatty acids (FFS) [3]; repeated application, result in words): able to confirm the results of these tests
- FFS (free fatty acids (FFS) [4]; Table 5, individual animals, 1 hour after application, 15 mg/kg): 0.41 μval/ml and 0.43 μval/ml and 0.59 μval/ml and 0.52 μval/ml and 0.67 μval/ml and 0.37 μval/ml and 0.40 μval/ml and 0.54 μval/ml and 0.44 μval/ml
- FFS, mean (free fatty acids (FFS) [4]; Table 5, mean, n=10, 1 hour after application, 15 mg/kg, control 1.08, p<0.001): 0.47 μval/ml
- FFS (free fatty acids (FFS) [4]; Table 6, individual animals, 6 hours after application, 15 mg/kg p.o., 15 mg/kg): 0.51 μval/ml and 0.50 μval/ml and 0.67 μval/ml and 0.64 μval/ml and 0.56 μval/ml and 0.53 μval/ml and 0.61 μval/ml and 0.85 μval/ml and 0.44 μval/ml and 0.54 μval/ml and 0.58 μval/ml and 1.00 μval/ml and 0.47 μval/ml and 1.46 μval/ml and 1.10 μval/ml
- FFS, mean (x) (free fatty acids (FFS) [4]; Table 6, mean, n=21, 6 hours after application, 15 mg/kg p.o., control 0.86, p<0.01): 0.69 μval/ml
- lipid-lowering activity [5]: shows corresponding activity
- TG (serum triglycerides (TG); Table 7, individual animals, 12 mg/kg (equim. dosage) 1 hour before removal of blood, 12 mg/kg): 90.2 mg % and 87.3 mg % and 58.7 mg % and 107.4 mg % and 51.6 mg % and 55.8 mg % and 71.6 mg % and 60.1 mg % and 68.7 mg %
- TG, mean (x) (serum triglycerides (TG); Table 7, mean, 12 mg/kg (equim. dosage), control x = 66.4): 74.1 mg %
- TG (serum triglycerides (TG); Table 8, individual animals, 3 mg/kg (equim. dosage) oral 1 hour before blood removal, 3 mg/kg): 137.4 mg % and 87.3 mg % and 70.2 mg % and 74.4 mg % and 50.1 mg % and 43.0 mg % and 57.2 mg % and 51.5 mg % and 32.9 mg % and 73.0 mg %
- TG, mean (x) (serum triglycerides (TG); Table 8, mean, 3 mg/kg (equim. dosage) oral, control x = 86.3, p>0.05→Ko., p>0.05→xant.-carbox.): 67.7 mg %
- effect on serum triglyceride level of normal animals (serum triglycerides (TG); equimolecular doses of the free acid, result in words): relatively weak, i.e. insignificant effect
